Measurements taken from patent US5814627A, “3, 5-disubstituted and 3, 4, 5-trisubstituted 2-isoxazolines and isoxazoles, process for their preparation and their use as pharmaceuticals” (Hoechst Aktienegesellschaft, priority 1994, dated 1998).

What was measured:
[1] = system: PAF-induced asthma attack; assay: Test 7: antiasthmatic effect, PAF-induced asthma attack; assay type: in vivo; details: Cavia porcellus; i.d., 15 minutes before PAF; guinea pig
Method: Test 7: Testing for antiasthmatic effect
Anesthetized guinea pigs, which were cannulated in the jugular vein to allow injection of the PAF, were used for testing for antiasthmatic effect. The test preparations were also administered intravenously (i.v.), 5 min before PAF administration, into the blood stream through the same venous cannula, or else administered intraduodenally (i.d.), 15 minutes before the PAF, through an opening in the duodenum which had been installed and cannulated surgically. The bronchial width was recorded in an overflow pneumonogram before and after administering the preparation. Evaluation: ED50 in mg/kg i.d. as compared with the PAF-induced asthma attack.

[2] = system: cyclooxygenase-dependent thrombocyte aggregation; assay: Test 5: Cyclooxygenase-dependent thrombocyte aggregation; assay type: cell-based, human; details: Homo sapiens, arachidonic acid as inducer, read-out: Test 5 residual activity (cyclooxygenase-dependent thrombocyte aggregation), percent of control
Method: TEST 5. Cyclooxygenase-dependent thrombocyte aggregation
Platelet-rich plasma (PRP): to inhibit coagulation, human blood was treated with 1/10 of its volume of 3.8% sodium citrate solution. Centrifugation then takes place at 105×g for 20 minutes and the supernatant (PRP) is removed. 200 μl of PRP were preincubated, at 37° C. for 10 minutes, together with 30 μl of test substance in a PAP4 aggregometer (BioData). The test substance was dissolved in organic solvent and diluted 1:30 with buffer (50 mM TisHCl, pH 8.0; 90 mM NaCl). Aggregation is triggered with 20 μl of inducer. During the aggregation, stirring takes place at 800 rpm. Arachidonic acid, 5 mg/ml, was used as the inducer.
(§1) The values in the table show the concentration of the test substance which was employed in μM and, besides this, the residual activity measured in percent based on the control, which was set to be 100%. The interleukin is additionally indicated in test 4.

[3] = system: tumor cell line 20-10-5S (hybridoma cell line); assay: Test 8: Inhibition of tumor cell proliferation; assay type: cell-based; details: 48 h + 16 h tritiated thymidine incorporation; 20-10-5S cells
Method: The tumor cell line 20-10-5S (hybridoma cell line, supplied by ATCC (American Type Culture Collection)), which produces an antibody against mouse T cells) was used for determining the antiproliferative property of test substances. The cells were cultured, at 37° C. and 5% C2, under serum-free conditions in CG medium (cell-growth medium=Iscove-ATL (+albumin+transferrin+lipids); from Vitromex, Vilshofen). Only cells which were in the logarithmic phase of growth were used for the test mixture. The test substances were pipetted in various concentrations (from 1 to 50 μM), together with 4×10^3 20-10-5S cells, into round-bottomedmicrotiter plates (total volume with medium, 200 μl). After an incubation time of 48 h (37° C. and 5% CO2), 25 μl of tritiated thymidine (=0.25 μCi/test mixture, specific activity, 23 Ci/mM) were added to the plates. During the subsequent 16 h, the radioactively labeled thymidine was incorporated into the DNA of the growing cells. The samples were filtered off with suction on glass fiber filters and the incorporated radioactivity was measured using a β counter (Beta Plate System 1205 from Wallac).

adjuvant/arthritis model = assay: Test 6: antiarthritic effect in the adjuvant/arthritis model; assay type: in vivo, rat (Wistar-Lewis); details: Rattus norvegicus, po, 408 h, daily for 17 days, rat, read-out: Test 6 Paw volume (% inhibition); for inhibition in vivo at 50 mg/kg: 50 mg/kg orally; for inhibition in vivo at 25 mg/kg: 25 mg/kg orally
[4] = system: leukotriene B4 synthesis in white blood cells; assay: Test 3: LTB4 formation by white blood cells; assay type: cell-based; details: Homo sapiens, read-out: Test 3 residual activity (LTB4 formation), percent of control
Method: TEST 3. LTB4 formation by white blood cells
Isolation of white blood cells:
40 ml of human blood were mixed with 8 ml of 6% dextran solution (dextran, mw: 480,000 in PM16). After one hour at room temperature, the supernatant,which was composed of white blood cells, was removed, diluted with an equal volume of PM16, and centrifuged for 15 minutes at 300×g (1600 rpm). The sediment was next resuspended in approximately 5-6 ml of PM16 and, once the cell count had been determined in a Coulter Counter, adjusted to 10^7 cells/ml.
The test mixture comprised 0.24 ml of cell suspension, 0.03 ml of 20 mM CaCl2 /5 mM MgCl2 and 5 μl of test substance. Following 15 minutes of preincubation at 37° C., the reaction was started with 0.03 ml of A23187/glutathione (100 μg of A23187/ml; 15.4 μg of glutathione/ml). The incubation was terminated after 5 minutes at 37° C. by immediate cooling of the samples down to 0° C. After centrifuging for 2 minutes in an Eppendorff Centrifuge (0° C.), the supernatant was removed and examined chromatographically.
High pressure liquid chromatography (HPLC): the HPLC equipment comprises a Kratos pump (Spectro-flow 400), a cooled automatic BT 7041 sample injector (Biotronik) having a 75 μl sample loop, a Nucleosil C18 column (100*3 mm, 5 μm particles of Chrompack), a UV detector (Kratos) Spectroflow 757 (wavelength: 280 nm, measurement range: 0.1 AUFS, time constant: 0.5 s) and a Spectra Physics integrator (SP 4270). The eluent (725 ml of methanol, 275 ml of water and 0.1 ml of acetic acid) was supplied at a flow rate of 0.7 ml/minute and at a pressure of about 100 bar.
When doing this, the measurement range which has been set can be examined and altered if necessary. It is also vital to measure the test substances at the particular test concentration (e.g.: 10^-5 M) in PM16 before the cell incubation, since the test substances might conceal the LTB4 peak. If this is the case, a lower concentration must be selected.
as §1

Structure (SMILES)	ED50 [1]	IC50 [3]	activity at 100 µM [2]	other results
Cc1cc(CNC(=O)C2(C)CC(c3cc(C(C)(C)C)c(O)c(C(C)(C)C)c3)=NO2)cc(C)c1O (stereo not drawn) [Example 14]	10 to 50 mg/kg			activity at 10 µM [2]: 100%
CC(C)(C)c1cc(-c2cc(CNC(=O)NCC(=O)O)on2)cc(C(C)(C)C)c1O [Example 56, (3-(3-(4-Hydroxy-3,5-di-tert-butylphenyl)isoxazol-5-ylmethyl)ureido)acetic acid]	~50 mg/kg			
CC(C)(C)c1cc(C2=NOC(CO)C2)cc(C(C)(C)C)c1O (stereo not drawn) [Example 1, 3-(4-Hydroxy-3,5-di-tert-butylphenyl)-5-hydroxymethyl-2-isoxazoline]	10 to 50 mg/kg	5 to 10 µM		inhibition in vivo at 50 mg/kg (adjuvant/arthritis model): 70%; activity at 10 µM [2]: 93%; activity at 10 µM [4]: 92%
CC(C)(C)c1cc(C2=NOC(c3ccsc3)C2)cc(C(C)(C)C)c1O (stereo not drawn) [Example 8]	~10 mg/kg	< 5 µM	91%	inhibition in vivo at 50 mg/kg (adjuvant/arthritis model): 67%; activity at 1 µM ([4]; 1 μM): 93%; activity at 10 µM [4]: 15%
COP(=O)(O)C1CC(c2cc(C(C)(C)C)c(O)c(C(C)(C)C)c2)=NO1 (stereo not drawn) [Example 7, Monomethyl 3-(4-hydroxy-3,5-di-tert-butylphenyl)-2-isoxazolin-5-ylphosphonate]	10 to 30 mg/kg		95%	
Cc1oncc1C(=O)NCc1cc(-c2cc(C(C)(C)C)c(O)c(C(C)(C)C)c2)no1 [Example 52]	3 to 10 mg/kg	< 5 µM		
CCOC(=O)CNC(=O)NCc1cc(-c2cc(C(C)(C)C)c(O)c(C(C)(C)C)c2)no1 [Example 54, Ethyl (3-(3-(4-hydroxy-3,5-di-tert-butylphenyl)isoxazol-5-ylmethyl)ureido) acetate]	1 to 3 mg/kg	5 to 10 µM		
CC(C)(C)c1cc(-c2cc(CN)on2)cc(C(C)(C)C)c1O [Example 48]	10 to 50 mg/kg	5 to 10 µM		inhibition in vivo at 50 mg/kg (adjuvant/arthritis model): 60%
COP(=O)(OC)C1CC(c2cc(C(C)(C)C)c(O)c(C(C)(C)C)c2)=NO1 (stereo not drawn) [Example 5]	< 10 mg/kg		98%	
CC(C)(C)c1cc(C2=NOC(P(=O)(O)O)C2)cc(C(C)(C)C)c1O (stereo not drawn) [Example 6, 3-(4-Hydroxy-3,5-di-tert-butylphenyl)-2-isoxazolin-5-ylphosphonic acid]	~50 mg/kg			
CC(C)(C)c1cc(-c2cc(COC(=O)NCC(=O)O)on2)cc(C(C)(C)C)c1O [Example 40, N-(3-(4-Hydroxy-3,5-di-tert-butylphenyl)isoxazol-5-ylmethoxycarbonyl)glycine]	1 to 3 mg/kg	< 5 µM		
CC(C)(OCc1cc(-c2cc(C(C)(C)C)c(O)c(C(C)(C)C)c2)no1)C(=O)O [Example 36, 2-(3-(4-Hydroxy-3,5-di-tert-butylphenyl)isoxazol-5-ylmethoxy)-2-methylpropionic acid]			87%	activity at 10 µM [4]: 93%
CC(C)(C)c1cc(-c2cc(CCOC(=O)NCC(=O)O)on2)cc(C(C)(C)C)c1O [Example 43, N-(2-(4-Hydroxy-3,5-di-tert-butylphenyl)isoxazol-5-ylethoxycarbonyl)glycine]			99%	activity at 10 µM [4]: 93%
C[C@H](O)[C@@H]1CC(c2cc(C(C)(C)C)c(O)c(C(C)(C)C)c2)=NO1 (relative stereo) [Example 20]	~50 mg/kg	< 5 µM		inhibition in vivo at 25 mg/kg (adjuvant/arthritis model): 67%; activity at 10 µM [2]: 100%
C/C(O)=C(\C#N)C(=O)NCc1cc(-c2cc(C(C)(C)C)c(O)c(C(C)(C)C)c2)no1 [Example 53, 2-Cyano-3-hydroxybut-2-enecarboxylic acid(3-(4-hydroxy-3,5-di-tert-butylphenyl)isoxazol-5-ylmethyl)amide]	10 to 50 mg/kg	8 to 10 µM		inhibition in vivo at 25 mg/kg (adjuvant/arthritis model): 48%
